One series deals with preovulatory surge of LH. The series is described as follows: Pre-ovulatory LH surge in proestrus rats (hourly blood samples, radioimmunoassay). The format is in vivo, rat. As to conditions: for LH surge and ovulation inhibitory effect (in words): administered prior to ovulation, rats. The method, then:
(§1) These subjects were administered various dosages of the peptides of the invention as well as control materials, i.e., saline solution alone, and the naturally occuring peptides, vasopressin and oxytocin, that are related to the cyclic nonapeptide, 8-arginine vasotocin. Both vasopressin and oxytocin are well documented in the literature. Vasopressin is very closely related to 8-arginine vastocin, and has the cyclic nonapeptide structure: [drawing 2] wherein the 3rd amino acid moiety is phenylalanine rather than isoleucine that occurs in the 8-arginine vasotocin. In all other respects the vasopressin peptide chain is identical to 8-arginine vasotocin. Vasopressin is found in the posterior lobe of the pituitary gland.
(§2) More specifically, in normal cycling female rats there is a dramatic surge in the level of luteinizing hormone (LH) in the blood on the afternoon of proestrus. This surge of LH can be detected by monitoring periodic blood samples. These samples are secured by inserting a cannula into the right atrium of the heart. 50 microliters of blood are withdrawn each hour for some 6 to 7 samples. The levels of LH therein is determined using radioimmunossay techniques. Under normal circumstances, ovulation occurs about 12 hours later. The oviducts are then removed and the ova are recovered therefrom by inserting a hypodermic into the tubal ostium and flushing with phosphate-buffered saline. Freed ova are collected in a micropipette and counted. In the tests, the normal cycling rats were administered both control saline, and various dosages of 8-arginine vasotocin, prolyl-arginyl-glycinamide, prolyl-lysyl-glycinamide, vasopressin and oxytocin.
(§3) In every instance, the peptide dosage was administered in saline via heart cannula at one hour intervals over a 4 hour period.

A further series relates to ovulation. The series is described as follows: Ovulation in proestrus rats (ova flushed from oviducts and counted). The series is classed as in vivo, rat. How it is done: as §1, §2, §3
Series [1] relates to Pre-Ovulatory Surge of Prolactin. The series is described as follows: Pre-ovulatory surge of prolactin in rats. The series is classed as in vivo, rat. As to conditions: for Inhibitory effect on prolactin surge (in words): summary of Table II. The method, then: 8-arginine vasotocin, vasopressin, and oxytocin were administered at various dosage levels and rates to a number of rats. Saline solution was utilized as a control.

The conditions of series [2]: rat, in vivo. An excerpt:
The level of nonapeptide or tripeptide in the body fluids necessary to inhibit the LH surge and subsequent ovulation will vary from species to species and from individual to individual. In this regard, however, the nonapeptide does appear to have at least 50-100 times the activity, on a weight basis, of the tripeptide. Therefore, effective dosage levels of the tripeptides are necessarily higher than the nonapeptides, by as much as two or three orders of magnitude. On the other hand, the tripeptide, being a much simpler molecular, is more easily metabolized, and the higher dosage requirements are easily tolerated and produce no side effects. […] A technique similar to that disclosed herein for the synthesis of the tripeptide may be utilized; although it will be recognized that the production of a nine membered peptide will be considerably more costly and time consuming that the production of the tripeptide. But such synthesis techniques are available to secure the 8-arginine vasotocin utilized in the present invention.

For series [3] the following is noted: reason given for unsuitability in the method; cited from earlier work.
The mark [4] stands for this setting: proestrus rats, dosage 0.6 mg in saline via heart cannula at one hour intervals over a 4 hour period, acetate salt.
Where [5] appears, read: dihydrochloride form, dosage 1 μg, same conditions as Table I.
The mark [6] stands for this setting: proestrus rats, dosage 0.1 μg in saline via heart cannula at one hour intervals over a 4 hour period, acetate salt.
[7] abbreviates: proestrus rats, dosage 1.0 μg in saline via heart cannula at one hour intervals over a 4 hour period, acetate salt.
Where [8] appears, read: dosage 1μg/120 min, total dose 2 μg.
Where [9] appears, read: dosage 1μ/30 min, total dose 7 μg.
Setting [10] is: proestrus rats, dosage 5.0 μg in saline via heart cannula at one hour intervals over a 4 hour period, acetate salt.

Entries after “also recorded” stand apart in the source; their conditions may differ. Structures can show the parent of a compound that is named as a salt. Where two headings read alike, the source gives them in different places. Positions of bridges follow the written chain, without caps; N, C: chain ends. Residues, ends and D or L forms follow the SMILES beside them.

As for `NCCCC[C@H](NC(=O)[C@@H]1CCCN1)C(=O)NCC(N)=O` [Prolyl-lysyl-glycinamide, prolyl-lysyl-glycinamide] (H-Pro-Lys-Gly-NH2), the “LH surge and ovulation inhibitory effect (in words)” value in the series with preovulatory surge of LH (listed as Prolyl-Lysyl-Glycinamide) is “exhibits luteinizing hormone suppressing and anovulatory properties”; with preovulatory surge of LH (listed as prolyl-lysyl-glycinamide), “high inhibition of the LH surge and ovulation”. Further, in the series on preovulatory surge of LH (setting [4]), the “Presence of LH Surges (%)” value is given as 15%. In the series on ovulation (setting [4]), the “Presence of Ova (%)” value came out at 30%.

On to `CC[C@H](C)[C@@H]1NC(=O)[C@H](Cc2ccc(O)cc2)NC(=O)[C@@H](N)CSSC[C@@H](C(=O)N2CCC[C@H]2C(=O)N[C@@H](CCCNC(=N)N)C(=O)NCC(N)=O)NC(=O)[C@H](CC(N)=O)NC(=O)[C@H](CCC(N)=O)NC1=O` [8-arginine vasotocin-dihydrochloride] (H-CYIQNCPRG-NH2; disulfide 1-6), for which the “Presence of LH Surges (%)” value in the series with preovulatory surge of LH (setting [5]) came out at 0%. Further, the “Presence of Ova (%)” value with ovulation (setting [5]) came out at 20%.

In the case of `CC[C@H](C)[C@@H]1NC(=O)[C@H](Cc2ccc(O)cc2)NC(=O)[C@@H](N)CSSC[C@@H](C(=O)N2CCC[C@H]2C(=O)N[C@@H](CCCNC(=N)N)C(=O)NCC(N)=O)NC(=O)[C@H](CC(N)=O)NC(=O)[C@H](CCC(N)=O)NC1=O` [8-arginine-Vasotocin, 8-arginine vasotocin] (H-CYIQNCPRG-NH2; disulfide 1-6), the “LH surge and ovulation inhibitory effect (in words)” value in the series on preovulatory surge of LH is on record as “effectively blocked”. Also, the “Effect on basal levels of luteinizing hormone in the blood” value with preovulatory surge of LH (basal LH, not the surge) is “does not appear to suppress the basal levels”. Moreover, in the series on preovulatory surge of LH (on a weight basis), the “Activity of the nonapeptide relative to the tripeptide” value is on record as 50-100 times. For the same compound, the entries for the “Presence of LH Surges (%)” value in the series with preovulatory surge of LH (setting [6]) and in the series on preovulatory surge of LH (setting [7]) were 34% and 5%, respectively. Moreover, the “Presence of Ova (%)” value worked out at 45% with ovulation (setting [6]) and 22% with ovulation (setting [7]). Besides, the “Presence of Prolactin Surge (%)” value in series [1] (setting [8]) is on record as 0%; in series [1] (dosage 1μg/240 min, total dose 5 μg), 80%; in series [1] (setting [9]), 4%; in series [1] (dosage 1μ/60 min, total dose 4 μg), 14%. Also, in series [1], the “Inhibitory effect on prolactin surge (in words)” value is on record as “high inhibitory effect”.

Regarding `CC[C@H](C)[C@@H]1NC(=O)[C@H](Cc2ccc(O)cc2)NC(=O)[C@@H](N)CSSC[C@@H](C(=O)N2CCC[C@H]2C(=O)N[C@@H](CC(C)C)C(=O)NCC(N)=O)NC(=O)[C@H](CC(N)=O)NC(=O)[C@H](CCC(N)=O)NC1=O` [Oxytocin, reference compound], in the series on preovulatory surge of LH, the “LH surge and ovulation inhibitory effect (in words)” value was “essentially inactive”. Further, the “Presence of LH Surges (%)” value in the series with preovulatory surge of LH (setting [7]) turned out to be 100%; in the series on preovulatory surge of LH (setting [10]), 94%. In addition, the results for the “Presence of Ova (%)” value with ovulation (setting [7]) and in the series with ovulation (setting [10]) were 100% and 94%, respectively. The “Presence of Prolactin Surge (%)” value in series [1] (setting [8]) was found to be 84%; in series [1] (setting [9]), 60%. Further, the “Inhibitory effect on prolactin surge (in words)” value in series [1] is “the lowest effect”.

In the case of `N=C(N)NCCC[C@H](NC(=O)[C@@H]1CCCN1)C(=O)NCC(N)=O` [Prolyl-arginyl-glycinamide, prolyl-arginyl-glycinamide] (H-Pro-Arg-Gly-NH2), the “LH surge and ovulation inhibitory effect (in words)” value in the series with preovulatory surge of LH is “exhibits a similar luteinizing hormone suppressing effect that also inhibits ovulation; also recorded: high inhibition of the LH surge and ovulation”. Further, the “Presence of LH Surges (%)” value with preovulatory surge of LH (setting [4]) is 25%. Also, in the series with ovulation (setting [4]), the “Presence of Ova (%)” value is recorded as 42%. The Side effects entry in series [2] is given as “no noticable side effects”.

For the compound `NC(=O)CC[C@@H]1NC(=O)[C@H](Cc2ccccc2)NC(=O)[C@H](Cc2ccc(O)cc2)NC(=O)[C@@H](N)CSSC[C@@H](C(=O)N2CCC[C@H]2C(=O)N[C@@H](CCCN=C(N)N)C(=O)NCC(N)=O)NC(=O)[C@H](CC(N)=O)NC1=O` [Vasopressin, reference compound], in the series on preovulatory surge of LH, the “LH surge and ovulation inhibitory effect (in words)” value is recorded as “considerable activity”. Further, the figures for the “Presence of LH Surges (%)” value in the series with preovulatory surge of LH (setting [6]) and in the series with preovulatory surge of LH (setting [7]) were 94% and 37%, respectively. Also, the “Presence of Ova (%)” value is reported as 94% with ovulation (setting [6]) and 62% in the series on ovulation (setting [7]). Also, the “Presence of Prolactin Surge (%)” value in series [1] (setting [8]) is recorded as 57%; in series [1] (setting [9]), 17%. The “Inhibitory effect on prolactin surge (in words)” value in series [1] is given as “a lesser effect”. For the same compound, in series [3], the Side effects result is “severe vasocontrictive side effects”.

Source of the values: patent US4081533A, “Method of reducing mammalian fertility and drugs therefor” (Regents of the University of California, priority 1976, dated 1978).
